This is an account of results in US10544075B2 (OREGON HEALTH & SCIENCE UNIVERSITY, priority 2016, dated 2020).

Data set [1] is described as follows: Single time-point drug distribution of parent drugs from amides in brain and serum. In kind it is in vivo, C57Bl/6 mice. Particulars: equimolar systemic dose of 3.05 μmol/kg, 1 hour, brain. As for the experimental part:
Wild type male C57Bl/6 mice, aged 8-10 weeks, were housed in a climate-controlled room with a 12 hour light-dark cycle with ad libitum access to food and water. To compare the single time-point drug distribution of JD-20 with JD-20 generated from the amide MA-JD20, and JD-21 with JD-21 generated from the amide MA-JD-21, the concentrations of the parent drugs were analyzed in brain and serum of mice by administering a dose of 3.05 μmol/kg (three mice per dose) with JD-20, JD-21, MA-JD20 and MA-JD21 both intraperitoneally and orally. The compounds were dissolved in a mixture of 50:50 DMSO and 0.9% sodium chloride bacteriostatic solution. Oral gavage was performed with the use of plastic feeding tubes (20 ga×38 mm, Instech Laboratories Inc., PA, USA) connected to […] insulin syringes (Covidien LLC MA, USA). In both experiments, the mice were euthanized after 1 hour following drug administration.
The tissues were processed as follows: The brains were collected in previously weighed homogenizer tubes with 3 Gold Spec ⅛ chrome steel balls (Applied Industrial Technologies) and immediately frozen at −80° C. The blood samples were kept on ice for 30 mins and then spun down at 5400×G at 4° C. for 15 min. […]
The serum samples were warmed to room temperature. […] The serum samples thus prepared were submitted for LC-MS/MS analysis to quantify the amount of free JD-20 or JD-21. […]

A short description of data set [2]: 24 h time-course study after oral dose of MA-JD20. The class given is in vivo, mice. Particulars: oral MA-JD20, JD-20 measured. How it is done: As a follow-up of the single time point study, a 24 h time course study through oral gavage was performed for the amides, MA-JD20 and MA-JD21, and the corresponding JD-20 or JD-21 concentrations were measured in brain and blood of mice. Pharmacokinetic time-course curves were generated from these analyses and area under the curve (AUC) values for brain and blood were obtained.
Following the single time point drug distribution evaluation, to further understand the pharmacokinetic properties of the amide, a 24 h time-course study was conducted by administering an oral dose of […] of MA-JD20 to mice. The JD-20 concentrations generated in brain and blood were analyzed and area under the curve (AUC) values for brain and serum were obtained (FIG. 7). The AUCbrain/AUCserum ratio for amide MA-JD-20 is observed to be 0.89. […] The results obtained from the single point drug distribution were confirmed by the AUC analyses.

In the next data set the target is Human FAAH (Homo sapiens (Human), UniProt O00519). As to the kind of experiment: FAAH activity in cell homogenate. In kind it is biochemical. How it is done:
COS-7 cells (ATCC CRL-1651) were cultured in Dulbecco's Modified Eagle's Medium supplemented with 10% FBS, penicillin ([…]), and streptomycin ([…]). Cells (800,000/well) were seeded into 6-well plates (Falcon 353046) and left to adhere overnight. Cells were transfected with pcDNA4-FAAH-FLAG with Lipofectamine 2000 (Invitrogen) according to the manufacturer's protocol. Mock transfection controls were done with transfection reagent and no DNA. Cells were washed 4-days post transfection with cold PBS and scraped into TE buffer (125 mM Tris, 1 mM EDTA, pH 9) and sonicated (10 sec, 60 Sonic Dismembrator, Fisher). Cell homogenates were stored at −80° C. and protein concentrations were determined by BCA (Pierce). Cell homogenates were diluted into TE buffer containing 0.1% fatty-acid free BSA (Alfa Aesar). Substrates were added as 50× stocks in DMSO into 50 μL aliquots of homogenate to a final concentration of 100 μM. Reactions were performed with homogenate protein at 31.25 μg/mL for 15 min at 37° C. Reactions were quenched with 100 μL acetonitrile and vortexed for 20 s. Samples were clarified by centrifuge (10,000 rpm, 15 min, 4° C.). The supernatant is diluted 50-fold into 2:1 MeCN:H2O containing 300 nM d11-arachindonic acid and 30 nM d6-sobetirome. Samples were centrifuged again (13,200 rpm, 15 min, 4° C.). Products were quantified by LC/MS-MS with standard curves generated from mock samples. Observed rates are expressed as nmol product per mg protein homogenate per min.
FAAH was overexpressed in COS-7 cells as described above and cell homogenate was used to measure observed rates of substrate cleavage compared with the classic endogenous FAAH substrate anandamide (AEA). Substrate were all tested at 100 μM. Compared to AEA, the thyromimetic amides MA-GC 1 (9-fold), MA-JD20 (31-fold), and MA-JD21 (20-fold) show decreased rates. […] Observed rates are expressed as nmol product per mg homogenate protein per min.

Human FAAH, sequence (O00519 whole entry): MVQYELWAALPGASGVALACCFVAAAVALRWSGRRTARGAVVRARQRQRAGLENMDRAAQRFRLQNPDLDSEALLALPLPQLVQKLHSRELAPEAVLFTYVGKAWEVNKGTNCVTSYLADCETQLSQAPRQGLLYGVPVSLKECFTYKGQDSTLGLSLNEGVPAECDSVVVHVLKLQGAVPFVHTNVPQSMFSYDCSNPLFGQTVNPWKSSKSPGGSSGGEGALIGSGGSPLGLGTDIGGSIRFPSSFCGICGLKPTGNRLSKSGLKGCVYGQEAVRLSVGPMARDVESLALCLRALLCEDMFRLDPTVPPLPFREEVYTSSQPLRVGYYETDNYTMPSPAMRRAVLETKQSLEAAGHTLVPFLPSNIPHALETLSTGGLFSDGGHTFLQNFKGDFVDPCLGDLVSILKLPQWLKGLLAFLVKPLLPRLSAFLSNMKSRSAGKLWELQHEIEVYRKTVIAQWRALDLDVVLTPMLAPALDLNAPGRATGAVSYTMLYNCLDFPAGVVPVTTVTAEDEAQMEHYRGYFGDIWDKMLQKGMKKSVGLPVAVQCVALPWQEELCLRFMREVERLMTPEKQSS

Take `CNC(=O)COc1cc(Br)c(Cc2ccc(O)c(C(C)C)c2)c(Br)c1` [MA-JD20, 2-(3,5-dibromo-4-(4-hydroxy-3-isopropylbenzyl)phenoxy)-N-methylacetamide]: the “parent drug delivered to the CNS compared to unmodified JD-20 or JD-21” value in data set [1] was “delivers more of the parent drugs to the CNS”. In addition, in data set [2], the “Cmax and Tmax time in the brain tissue” value was “around 2 h”. For the same molecule, the FAAH substrate result at Human FAAH (100 μM, COS-7 cell homogenate) is reported as “substrates for fatty-acid amide hydrolase (FAAH)”. The “decreased observed rate of substrate cleavage compared to AEA” value at Human FAAH (substrate 100 μM, FAAH overexpressed in COS-7 cell homogenate) came to 31 fold.
